Results as given in patent US8598146B2, “Methods for identifying modulators of protein kinase C-epsilon (PKCε) and method of treatment of aberrant glucose metabolism associated therewith” (Garvan Institute of Medical Research, priority 2003, dated 2013).

What was measured:
pancreatic islets = test: glucose-stimulated insulin secretion from pancreatic islets with carbamylcholine (FIG. 13); assay type: cell-based, mouse; settings: 0.1 mM carbamylcholine with 20 mM glucose; islets from wild type and PKCε−/− mice
pancreatic beta cells = settings: 100 nM glyburide in the presence of 20 mM glucose; cited from earlier work

| SMILES | glucose-stimulated insulin secretion (pancreatic islets) | insulin secretion (pancreatic beta cells) |
| --- | --- | --- |
| C[N+](C)(C)CCOC(N)=O.[Cl-] [carbamylcholine] | potentiation | – |
| COc1ccc(Cl)cc1C(=O)NCCc1ccc(S(=O)(=O)NC(=O)NC2CCCCC2)cc1 [glyburide] | – | enhances insulin secretion |
